# Legend:
# [1] = system: rat Taxol-induced neuropathic pain model; assay: Thermal hyperalgesia in rat Taxol-induced neuropathic pain model; settings: for thermal hyperalgesia (heat pain threshold) vs vehicle: p<0.05
# Method: Gabapentin (100 mg/kg), was administrated via IP injection on Days 14, 21, and 27 (total three doses) by using the same cohort of animals in vehicle control group. Thermal hyperalgesia was assessed prior to Taxol challenge (Day 0; Pre-Taxol) and compound administration (Day 13; Pre-dose) and at 1.5 hours after (second) compound administration on Days 14, 17, 21, 24, and 27 (Post-dose). All values represented mean±SEM in individual groups. One-way ANOVA followed by Dunnett's test was applied for comparison between vehicle control and test article groups. p<0.05 is considered significant.
# Animal. Male Sprague-Dawley (SD) rats weighing 220-260 g (at arrival) were provided by BioLasco Taiwan (under Charles River Laboratories Technology Licensee).
# Chemotherapy induced neuropathy. Male SD rats weighing 240±20 grams was employed. Taxol (2 mg/kg) was injected IP on Days 1, 3, 5 and 7 with a total cumulative dose of 8 mg/kg (qod×4). During the course of the study, the animals were housed socially under constant temperature, humidity and a 12-hour light-dark cycle.
# The reference compound, gabapentin (100 mg/kg, IP), was administrated on Days 14, 21, and 27 (total three doses) by using the same cohort of animals in vehicle control group.
# The animals were tested prior to study inclusion for thermal hyperalgesia on Day 13. Thermal hyperalgesia was measured at 1.5 hour after dosing of vehicle or test article on Days 14, 17, 21, 24 and 27 by using the IITC Plantar Test Apparatus (IITC Model-336G; IITC Inc., USA). […] A light beam under the floor was aimed at the plantar surface of the left hind paw. The time was measured automatically when the paw is withdrawn away from the thermal stimulus. A cut-off latency of 23 sec was imposed. The latency to withdrawal was obtained for each rat and defined as the heat pain threshold.
# All values represented mean±SEM in individual groups. One-way ANOVA followed by Dunnett's test was applied for comparison between vehicle control and test article groups. p<0.05 is considered significant.
# scopolamine-treated rats [2] = assay: Water maze test, scopolamine-treated rats; format: in vivo; settings: by gavage twice daily for seven days; scopolamine 1.5 mg/kg ip
# Method: (§1) Compound 12, Compound 28, suberanilohydroxamic acid (50 mg/kg) or vehicle was given to rats by gavage twice daily for seven days prior to behavioral experiments. On the day conducting a behavior assessment, rats in all groups except the control group were administered scopolamine (1.5 mg/kg) by intraperitoneal injection for 30 minutes before the assessment, then a water maze test or an elevated plus maze test was performed.
# scopolamine-treated rats [3] = assay: Elevated plus maze test, scopolamine-treated rats; format: in vivo; settings: by gavage twice daily for seven days; scopolamine 1.5 mg/kg ip
# Method: as §1
# [4] = system: multiple myeloma cells (RPMI8226, U266, NCI-H929); assay: Apoptosis in multiple myeloma cells, combined with bortezomib (FACScan, propidium iodide); format: cell-based, human; settings: RPMI8226, U266, and NCI-H929, 24 hours
# Method: A study was conducted to evaluate the effect of a compound of Formula (I) combined with bortezomib in inducing apoptosis in multiple myeloma cells.
# To detect cell cycle progression, cells were incubated with or without the indicated agent for 24 hours, washed twice with ice-cold PBS, collected by centrifugation, and fixed in 70% (v/v) ethanol for 2 hours at −20° C. They were subsequently incubated for 30 minutes at room temperature with 0.2 mL of deoxyribonucleic acid (DNA) extraction buffer (0.2 M Na2HPO4 and 0.1 M citric acid buffer, pH 7.8), re-suspended in 1 mL of propidium iodide staining buffer (0.1% Triton X-100, 100 μg/mL of RNase A, and 80 μg/mL of propidium iodide in PBS), incubated at 37° C. for 30 minutes in darkness, sorted by FACScan, and analyzed using CellQuest software (BD Biosciences).
# The study was performed according to the protocol reported in Hsieh et al., Cell Death and Disease, 2014 April; 5:e1166.
# IL-6 expression = assay: LPS-induced IL-6 expression in RAW 264.7 cells (ELISA); format: cell-based, mouse; settings: 10 μM, LPS 24 hr
# Method: FIG. 1. Effects of Compound 28 on LPS-induced IL-6 protein expression. The cells were induced with 1 µg/mL LPS and various concentrations of Compound 28 for 24 hr. The levels of IL-6 were determined by ELISA kit.
# In this example, we tested that whether Compound 28 can attenuate LPS-induced inflammation.
# Cells. The RAW 264.7 cell line derived from mouse macrophage were maintained in Dulbecco's modified Eagle's medium (DMEM; GIBCO, Carlsbad, CA, USA) supplemented with 10% heat-inactivated fetal bovine serum (FBS), 100 μg/mL streptomycin, and 100 IU/mL penicillin.
# Measurement of IL-6 expression. RAW cells were cultured onto 6 wells plate. After reaching 80% confluence, cells were pretreated with Compound 28 in 1% FBS medium for 30 min and then incubated with LPS for 24 hr. The levels of IL-6 were determined by IL-6 ELISA kit (BD Bioscience, San Jose, CA, USA). Briefly, 50 μL conditioned medium and 50 μL Assay Diluent were added to each well for 2 hours at room temperature. After washed five times, 100 μL Working Detector was added and incubated for 1 hour. After repetitive washing, 100 μL TMB-Substrate Solution was added for 30 minutes. Finally, 50 μL Stop Solution was added and the optical density was determined using microplate reader set at 450 nm.
structure (smiles),measurement,setting,value
"O=C(CCCCCCNC(=O)c1cnc(N(c2ccccc2)c2ccccc2Cl)nc1)NO [ACY241, Citarinostat, reference compound]",thermal hyperalgesia (heat pain threshold) vs vehicle,"[1]; 50 mg/kg PO qd x14, Days 14, 17, 21, and 24",successfully relieved the thermal hyperalgesia
"O=C(NO)c1ccc(CNc2cccc3ncccc23)cc1 [Compound 12, N-hydroxy-4-((quinolin-5-ylamino)methyl)benzamide]",time spent in the correct quadrant (water maze test),scopolamine-treated rats [2],markedly reverse this effect
same,transfer latency time (elevated plus maze test),scopolamine-treated rats [3],significantly rescued scopolamine-mediated increase of transfer latency time
"O=C(NO)c1ccc(CNc2cccc3cccnc23)cc1 [Compound 28, N-hydroxy-4-((quinolin-8-ylamino)methyl)benzamide]",thermal hyperalgesia (heat pain threshold) vs vehicle,"[1]; 50 mg/kg PO bid x14, Days 21 and 24",markedly reduced the thermal pain
same,thermal hyperalgesia (heat pain threshold) vs vehicle,"[1]; 50 mg/kg PO qd x14, Days 14 and 17",significant analgesic effects
same,thermal hyperalgesia (heat pain threshold) vs vehicle,"[1]; 50 mg/kg PO qd x14, Days 21 and 24",markedly reduced the thermal pain
same,apoptosis induction,[4],synergistically induced apoptosis
same,time spent in the correct quadrant (water maze test),scopolamine-treated rats [2],markedly reverse this effect
same,LPS-induced IL-6 expression,IL-6 expression,significantly reduce LPS-induced IL-6 expression
same,transfer latency time (elevated plus maze test),scopolamine-treated rats [3],significantly rescued scopolamine-mediated increase of transfer latency time
"NCC1(CC(=O)O)CCCCC1 [Gabapentin, reference compound]",thermal hyperalgesia (heat pain threshold),"[1]; 100 mg/kg IP on Days 14, 21, and 27, during the experimental period",attenuated the thermal pain
